Assay results: patent publication US20020137929A1, “1 - (3-heterocyclylphenyl) isothiourea, -isourea, -guanidine and -amidine herbicidal agents” (Intellectual Property Department, BASF Aktiengesellschaft, priority 1998, published 2002)

What was measured:
[1] = test system: GLXMAW (Soybean, Williams); assay: Preemergence herbicidal evaluation; type: in vivo, Glycine max, (L.) Merr. cv Williams; conditions: preemergence, rated 4-5 weeks after treatment, 0-9 scale
Procedure, shortened: (§1)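 Sown cups got a single aqueous acetone spray of test compound (roughly 0.0156–0.500 kg/ha) before seedlings emerged. Evaluation, 4–5 weeks on, used a 0–9 visual scale covering plant stand, vigor, size, malformation, chlorosis and general appearance compared with controls.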

[2] = test system: CASOB (Sicklepod); assay: Postemergence herbicidal evaluation; type: in vivo, Cassia obtusifolia; conditions: postemergence
Procedure, shortened: (§2)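 Two-week seedlings sprayed postemergence at 40 psi; formulation: 1:1 acetone/water, 0.5% TWEEN 20; application ≈0.0156–0.500 kg/ha. Greenhouse grow-out, then 0–9 visual scoring at 4–5 weeks.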

[3] = test system: SAGPY (Arrowhead (Pygmaea)); assay: Preemergence weed control under flooded paddy conditions; type: in vivo, Sagittaria pygmaea; conditions: rated 3-4 weeks after treatment
Procedure, shortened: (§3)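 Flooded-pot preemergence screen with silt loam and seeds in the upper 0.5 cm. Dose about 0.0313 to 0.500 kg/ha, delivered into flood water; visual 0-9 score after 3 to 4 weeks.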

[4] = test system: CHEAL (Lambsquarters, Common); assay: Postemergence herbicidal evaluation; type: in vivo, Chenopodium album; conditions: postemergence
Procedure, shortened: as §2

[5] = test system: TRZAWR (Wheat, Winter, cv Riband); assay: Postemergence herbicidal evaluation; type: in vivo, Triticum aestivum; conditions: postemergence
Procedure, shortened: as §2

[6] = test system: IPOHE (Morningglory, Ivyleaf); assay: Preemergence herbicidal evaluation; type: in vivo, Ipomoea hederacea; conditions: preemergence, rated 4-5 weeks after treatment, 0-9 scale
Procedure, shortened: as §1

[7] = test system: MOOVA (Monochoria); assay: Preemergence weed control under flooded paddy conditions; type: in vivo, Monochoria vaginalis; conditions: rated 3-4 weeks after treatment
Procedure, shortened: as §3

[8] = test system: ORYSAT (Rice, Tebonnet); assay: Preemergence herbicidal evaluation; type: in vivo, Oryza sativa, (L.) Tebonnet; conditions: preemergence, rated 4-5 weeks after treatment, 0-9 scale
Procedure, shortened: as §1

[9] = test system: ECHCG (Barnyardgrass); assay: Postemergence herbicidal evaluation; type: in vivo, Echinochloa crus-galli; conditions: postemergence
Procedure, shortened: as §2

[10] = test system: CHEAL (Lambsquarters, Common); assay: Preemergence herbicidal evaluation; type: in vivo, Chenopodium album; conditions: preemergence, rated 4-5 weeks after treatment, 0-9 scale
Procedure, shortened: as §1

[11] = test system: IPOHE (Morningglory, Ivyleaf); assay: Postemergence herbicidal evaluation; type: in vivo, Ipomoea hederacea; conditions: postemergence
Procedure, shortened: as §2

[12] = test system: ABUTH (Velvetleaf); assay: Preemergence herbicidal evaluation; type: in vivo, Abutilon theophrasti; conditions: preemergence, rated 4-5 weeks after treatment, 0-9 scale
Procedure, shortened: as §1

[13] = test system: AMBEL (Ragweed, Common); assay: Postemergence herbicidal evaluation; type: in vivo, Ambrosia artemisifolia; conditions: postemergence
Procedure, shortened: as §2

[14] = test system: AMBEL (Ragweed, Common); assay: Preemergence herbicidal evaluation; type: in vivo, Ambrosia artemisifolia; conditions: preemergence, rated 4-5 weeks after treatment, 0-9 scale
Procedure, shortened: as §1

[15] = test system: GLXMAW (Soybean, Williams); assay: Postemergence herbicidal evaluation; type: in vivo, Glycine max, (L.) Merr. cv Williams; conditions: postemergence
Procedure, shortened: as §2

[16] = test system: CASOB (Sicklepod); assay: Preemergence herbicidal evaluation; type: in vivo, Cassia obtusifolia; conditions: preemergence, rated 4-5 weeks after treatment, 0-9 scale
Procedure, shortened: as §1

CCOC(=O)CN1C(=O)C(CC(=O)NS(=O)(=O)CC)SC1=Nc1cc(-n2c(=O)cc(C(F)(F)F)n(C)c2=O)c(F)cc1Cl (centres unmarked) [Compound 103, Ethyl 2-{{2-chloro-5-[3,6-dihydro-3-methyl-2,6-dioxo-4-(trifluoromethyl)-1(2H)-pyrimidinyl]-4-fluorophenyl}imino}-5-{[(ethylsulfonyl)carbamoyl]-methyl}-4-oxo-3-thiazolidineacetate]
GLXMAW rating ([1]; 0.0313 kg/ha): 0.0 | GLXMAW rating ([1]; 0.0625 kg/ha): 0.0 | GLXMAW rating ([1]; 0.1250 kg/ha): 0.0 | GLXMAW rating ([1]; 0.2500 kg/ha): 0.0 | GLXMAW rating ([1]; 0.5000 kg/ha): 3.0 | herbicidal rating CASOB ([2]; rate 0.0156 kg/ha): 0.0 | herbicidal rating CASOB ([2]; rate 0.0313 kg/ha): 3.0 | herbicidal rating CASOB ([2]; rate 0.0625 kg/ha): 3.0 | herbicidal rating CASOB ([2]; rate 0.1250 kg/ha): 3.0 | SAGPY herbicidal effect rating ([3]; 0.0313 kg/ha): 7.0 | SAGPY herbicidal effect rating ([3]; 0.0625 kg/ha): 9.0 | SAGPY herbicidal effect rating ([3]; 0.1250 kg/ha): 9.0 | SAGPY herbicidal effect rating ([3]; 0.2500 kg/ha): 9.0 | herbicidal rating CHEAL ([4]; rate 0.0156 kg/ha): 3.0 | herbicidal rating CHEAL ([4]; rate 0.0313 kg/ha): 3.0 | herbicidal rating CHEAL ([4]; rate 0.0625 kg/ha): 5.0 | herbicidal rating CHEAL ([4]; rate 0.1250 kg/ha): 9.0 | herbicidal rating TRZAWR ([5]; rate 0.0156 kg/ha): 3.5 | herbicidal rating TRZAWR ([5]; rate 0.0313 kg/ha): 6.0 | herbicidal rating TRZAWR ([5]; rate 0.0625 kg/ha): 7.5 | herbicidal rating TRZAWR ([5]; rate 0.1250 kg/ha): 7.5 | IPOHE rating ([6]; 0.0313 kg/ha): 0.0 | IPOHE rating ([6]; 0.0625 kg/ha): 0.0 | IPOHE rating ([6]; 0.1250 kg/ha): 3.0 | IPOHE rating ([6]; 0.2500 kg/ha): 5.0 | IPOHE rating ([6]; 0.5000 kg/ha): 9.0 | MOOVA herbicidal effect rating ([7]; 0.0313 kg/ha): 5.0 | MOOVA herbicidal effect rating ([7]; 0.0625 kg/ha): 7.0 | MOOVA herbicidal effect rating ([7]; 0.1250 kg/ha): 9.0 | MOOVA herbicidal effect rating ([7]; 0.2500 kg/ha): 9.0 | ORYSAT rating ([8]; 0.0313 kg/ha): 0.0 | ORYSAT rating ([8]; 0.0625 kg/ha): 0.0 | ORYSAT rating ([8]; 0.1250 kg/ha): 0.0 | ORYSAT rating ([8]; 0.2500 kg/ha): 0.0 | ORYSAT rating ([8]; 0.5000 kg/ha): 2.0 | herbicidal rating ECHCG ([9]; rate 0.0156 kg/ha): 3.0 | herbicidal rating ECHCG ([9]; rate 0.0313 kg/ha): 9.0 | herbicidal rating ECHCG ([9]; rate 0.0625 kg/ha): 9.0 | herbicidal rating ECHCG ([9]; rate 0.1250 kg/ha): 9.0 | CHEAL rating ([10]; 0.0313 kg/ha): 0.0 | CHEAL rating ([10]; 0.0625 kg/ha): 4.0 | CHEAL rating ([10]; 0.1250 kg/ha): 9.0 | CHEAL rating ([10]; 0.2500 kg/ha): 9.0 | CHEAL rating ([10]; 0.5000 kg/ha): 9.0 | herbicidal rating IPOHE ([11]; rate 0.0156 kg/ha): 9.0 | herbicidal rating IPOHE ([11]; rate 0.0313 kg/ha): 9.0 | herbicidal rating IPOHE ([11]; rate 0.0625 kg/ha): 9.0 | herbicidal rating IPOHE ([11]; rate 0.1250 kg/ha): 9.0 | ABUTH rating ([12]; 0.0313 kg/ha): 9.0 | ABUTH rating ([12]; 0.0625 kg/ha): 9.0 | ABUTH rating ([12]; 0.1250 kg/ha): 9.0 | ABUTH rating ([12]; 0.2500 kg/ha): 9.0 | ABUTH rating ([12]; 0.5000 kg/ha): 9.0 | herbicidal rating AMBEL ([13]; rate 0.0156 kg/ha): 9.0 | herbicidal rating AMBEL ([13]; rate 0.0313 kg/ha): 9.0 | herbicidal rating AMBEL ([13]; rate 0.0625 kg/ha): 9.0 | herbicidal rating AMBEL ([13]; rate 0.1250 kg/ha): 9.0 | AMBEL rating ([14]; 0.0313 kg/ha): 0.0 | AMBEL rating ([14]; 0.0625 kg/ha): 0.0 | AMBEL rating ([14]; 0.1250 kg/ha): 0.0 | AMBEL rating ([14]; 0.2500 kg/ha): 4.0 | AMBEL rating ([14]; 0.5000 kg/ha): 9.0 | herbicidal rating GLXMAW ([15]; rate 0.0156 kg/ha): 8.0 | herbicidal rating GLXMAW ([15]; rate 0.0313 kg/ha): 7.0 | herbicidal rating GLXMAW ([15]; rate 0.0625 kg/ha): 9.0 | herbicidal rating GLXMAW ([15]; rate 0.1250 kg/ha): 9.0 | CASOB rating ([16]; 0.0313 kg/ha): 0.0 | CASOB rating ([16]; 0.0625 kg/ha): 0.0 | CASOB rating ([16]; 0.1250 kg/ha): 0.0 | CASOB rating ([16]; 0.2500 kg/ha): 3.0 | CASOB rating ([16]; 0.5000 kg/ha): 3.0
